In patent US6403632B1, “Lactam metalloprotease inhibitors” (priority 2000, dated 2002):

System: cartilage degradation
Test: Acute Cartilage Degradation Rat Model
Format: in vivo
Conditions: rats
Text: Acute Cartilage Degradation Rat Model A novel in vivo model of acute cartilage degradation in rats has been characterized as a method to determine the proteoglycan content in the synovial fluid after the induction of cartilage degradation.

SMILES: COc1ccc2c(c1)c(CC(=O)O)c(C)n2C(=O)c1ccc(Cl)cc1 [Indomethacin]
- inhibition of cartilage degradation, as measured by increased proteoglycan content in the synovial fluid: inactive
